According to patent US10875851B2, “Factor XIIa inhibitors” (Merck Sharp & Dohme Corp., priority 2016, dated 2020):

Molecular target: human Factor XIIa (Homo sapiens (Human), UniProt P00748)
Assay: Factor XIIa Assay
Type: biochemical
Details: purified human Factor XIIa 500 pM; substrate n-Acetyl-Lys-Pro-Arg-AFC 100 μM; pH 7.4; read-out: FXIIa IC50
Protocol: The effectiveness of a compound of the present invention as an inhibitor of Coagulation Factor XIIa can be determined using a relevant purified serine protease, and an appropriate synthetic substrate. The rate of hydrolysis of the chromogenic or fluorogenic substrate by the relevant serine protease was measured both in the absence and presence of compounds of the present invention. Assays were conducted at room temperature or at 37° C. […] A decrease in the rate of fluorescence change in the presence of inhibitor is indicative of enzyme inhibition. Such methods are known to one skilled in the art.
Factor XIIa activity determinations were made in 50 mM HEPES buffer containing 150 mM NaCl, 5 mM CaCl2, and 0.1% PEG 8000 (polyethylene glycol; JT Baker or Fisher Scientific) at pH 7.4. Determinations were made using purified human Factor XIIa at a final concentration of 500 pM (Sekisui Diagnostics) and the synthetic substrate, n-Acetyl-Lys-Pro-Arg-AFC, TFA salt (Sigma #C6608) at a concentration of 100 μM.
Times required to achieve equilibration between enzyme and inhibitor were determined in control experiments. Initial velocities of product formation in the absence (Vo) or presence of inhibitor (Vi) were measured. IC50 was determined as the concentration of I yielding Vi=Vo/2.

Chain of human Factor XIIa (P00748 373-615): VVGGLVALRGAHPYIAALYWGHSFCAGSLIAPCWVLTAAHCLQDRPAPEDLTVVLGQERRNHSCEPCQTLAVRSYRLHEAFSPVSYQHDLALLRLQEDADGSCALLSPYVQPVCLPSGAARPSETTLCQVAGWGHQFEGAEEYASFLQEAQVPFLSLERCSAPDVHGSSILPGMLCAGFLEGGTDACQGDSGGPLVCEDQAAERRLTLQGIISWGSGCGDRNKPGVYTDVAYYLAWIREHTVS

Row | Compound | IC50 [nM]
1 | NCc1ccc(OC(=O)N2CCN(C(=O)[C@@H](CC3CCCCC3)NC3CCCCC3)[C@H](C(=O)NCc3cccs3)C2)c(Cl)c1 [Example 21, 4-(aminomethyl)-2-chlorophenyl (3S)-4-(N,3-dicyclohexyl-D-alanyl)-3-[(thiophen-2-ylmethyl)carbamoyl]piperazine-1-carboxylate] | 6.7
2 | C[C@H]1N=C(N2CCN(C(=O)[C@@H](CC3CCCCC3)NC3CCCCC3)[C@H](C(=O)NCc3cccs3)C2)O[C@H]1c1ccccc1 [Example 114, (2S)-1-(N,3-dicyclohexyl-D-alanyl)-4-[(4R,5S)-4-methyl-5-phenyl-4,5-dihydro-1,3-oxazol-2-yl]-N-(thiophen-2-ylmethyl)piperazine-2-carboxamide] | 17.1
3 | COC(N)c1cccc(OC(=O)N2CCN(C(=O)[C@@H](CCCCNS(C)(=O)=O)NC3CCC4(CC3)CCN(Cc3ccccc3)C4)[C@H](C(=O)NCc3cccs3)C2)c1 (stereo partly drawn) [Example 75, 3-[amino(methoxy)methyl]phenyl (3S)-4-[N^2-(2-benzyl-2-azaspiro[4.5]dec-8-yl)-N^6-(methylsulfonyl)-D-lysyl]-3-[(thiophen-2-ylmethyl)carbamoyl]piperazine-1-carboxylate] | 5.7
4 | C[C@@H]1N=C(N2CCN(C(=O)[C@@H](CCCCNS(C)(=O)=O)NC3CCC4(CC3)CCN(Cc3ccccc3)C4)[C@H](C(=O)NCc3cccs3)C2)O[C@H]1c1ccccc1 (stereo partly drawn) [Example 128, (2S)-1-[N^2-(2-benzyl-2-azaspiro[4.5]dec-8-yl)-N^6-(methylsulfonyl)-D-lysyl]-4-[(4S,5S)-4-methyl-5-phenyl-4,5-dihydro-1,3-oxazol-2-yl]-N-(thiophen-2-ylmethyl)piperazine-2-carboxamide] | 10.2
5 | COc1cc(CNC(=O)[C@@H]2CN(C(=O)Oc3cccc4ccccc34)CCN2C(=O)[C@@H](CC2CCCCC2)NC2CCC3(CC2)CCN(Cc2ccccc2)C3)ccc1CN (stereo partly drawn) [Example 28, naphthalen-1-yl (3S)-3-{[4-(aminomethyl)-3-methoxybenzyl]carbamoyl}-4-[N-(2-benzyl-2-azaspiro[4.5]dec-8-yl)-3-cyclohexyl-D-alanyl]piperazine-1-carboxylate] | 3.9
6 | O=C(NCc1cccs1)[C@@H]1CN(C(=O)Oc2cccc3c2CCNC3)CCN1C(=O)[C@@H](CC1CCCCC1)NC1CCCCC1 [Example 36, 1,2,3,4-tetrahydroisoquinolin-5-yl (3S)-4-(N,3-dicyclohexyl-D-alanyl)-3-[(thiophen-2-ylmethyl)carbamoyl]piperazine-1-carboxylate] | 4.1
7 | COc1cc(CNC(=O)[C@@H]2CN(C(=O)Oc3cccc4ccccc34)CCN2C(=O)[C@@H](CC2CCCCC2)NC2CCCCC2)ccc1CN [Example 24, naphthalen-1-yl (3S)-3-{[4-(aminomethyl)-3-methoxybenzyl]carbamoyl}-4-(N,3-dicyclohexyl-D-alanyl)piperazine-1-carboxylate] | 1.6
8 | NCc1ccc(CNC(=O)[C@@H]2CN(C(=O)Oc3cccc4ccccc34)CCN2C(=O)[C@@H](CC2CCCCC2)NC2CCCCC2)cc1 [Example 26, naphthalen-1-yl (3S)-3-{[4-(aminomethyl)benzyl]carbamoyl}-4-(N,3-dicyclohexyl-D-alanyl)piperazine-1-carboxylate] | 8.4
9 | O=C(NCc1cccs1)[C@@H]1CN(C(=O)Oc2ccccc2Cl)CCN1C(=O)[C@@H](CCCCN1CCCCC1)NC1CCCCC1 [Example 97, 2-chlorophenyl (3S)-4-(N-cyclohexyl-6-piperidin-1-yl-D-norleucyl)-3-[(thiophen-2-ylmethyl)carbamoyl]piperazine-1-carboxylate] | 0.7
10 | C[C@H]1N=C(N2CCN(C(=O)[C@@H](CCCCN(C)C)NC3CCC4(CC3)CCN(Cc3ccccc3)C4)[C@H](C(=O)NCc3cccs3)C2)O[C@@H]1c1ccccc1 (stereo partly drawn) [Example 143, (2S)-1[N^2-(2-benzyl-2-azaspiro[4.5]dec-8-yl)-N^6,N^6-dimethyl-D-lysyl]-4-[(4R,5R)-4-methyl-5-phenyl-4,5-dihydro-1,3-oxazol-2-yl]-N-(thiophen-2-ylmethyl)piperazine-2-carboxamide] | 9.4
